According to patent US20110152314A1, “USE OF TENATOPRAZOLE FOR THE TREATMENT OF GASTROESOPHAGEAL REFLUX DISEASE” (SIDEM PHARMA, priority 2002, published 2011):
Where two headings read alike, the source gives them in different places.

How the values were obtained:
Type in all cases: in vivo, human
[1] = Phase I study, pharmacokinetic parameters after oral single dose and daily dose for 7 days; conditions: for AUC(0-t) / Cmax at 7 days / Tmax at 7 days / half-life at 7 days / Cmax / Tmax / half-life: human, oral; for AUC(0-t): po, read-out: AUC 0-t area under the curve, between time 0 and the last measurable concentration; for Cmax at 7 days / Cmax: read-out: Cmax maximum concentration; for Tmax at 7 days / Tmax: read-out: Tmax time required to attain maximum concentration
Method: The doses tested were 10, 20, 40 and 80 mg of tenatoprazole.
In this table, the abbreviations employed have the following meaning:
Cmax maximum concentration
Tmax time required to attain maximum concentration
T1/2 elimination half-life
AUC0-t area under the curve, between time 0 and the last measurable concentration.
The AUC0-inf value was calculated by extrapolation.

[2] = test system: patients with atypical symptoms of gastroesophageal reflux; assay: Clinical treatment of patients with atypical symptoms of gastroesophageal reflux; design: Safety: key: +: moderate; ++: ranging from moderate to highly favorable; +++: highly favorable; conditions: oral; on Evolution of symptom: key: +: moderate; ++: ranging from moderate to highly favorable; +++: highly favorable
From the text: Some clinical examples are given below, which show the effects of treatment on patients suffering from gastroesophageal reflux or dyspepsia, treated by the oral administration of tenatoprazole.

[3] = test system: patients suffering from erosive and/or ulcerative type reflux esophagitis; assay: Open-labeled studies in reflux esophagitis: improvement rating of subjective and objective symptoms; conditions: 1st study, 10 mg tablet orally once a day
Method: Two open-labeled studies have been conducted in order to evaluate the efficacy and safety of tenatoprazole for gastroesophageal reflux disease. 22 patients in the first study and 24 patients in the second study, of more than 20 years of age, suffering from erosive and/or ulcerative type reflux esophagitis (diagnosed by endoscopy), received tablets containing enteric-coated granules with 10 mg of tenatoprazole.
[…] […], or at the withdrawal from the study, the disease stages were evaluated according to the Savary and Miller classification and the treatment was stopped when healing was confirmed. The condition was evaluated as healed when disappearance of erosion was confirmed.

[4] = in vivo, repeated dose (7 days) 10 mg daily
[5] = in vivo, repeated dose (7 days) 20 mg daily
[6] = in vivo, repeated dose (7 days) 40 mg daily
[7] = in vivo, repeated dose (7 days) 80 mg daily
[8] = patient 26, asthma, link with GERD ++, 12 weeks
[9] = patient 27, dental caries, link with GERD +, 12 weeks
[10] = patient 29, noct. cough, link with GERD +++, 7 weeks
[11] = patient 31, pharyngitis, link with GERD +, 8 weeks
[12] = patient 33, asthma, link with GERD ++, 12 weeks
[13] = patient 34, dysphonia, link with GERD ++, 4 weeks
[14] = patient 34, pharyngitis, link with GERD ++, 8 weeks
[15] = patient 36, dysphonia, link with GERD ++, 5 weeks
[16] = patient 36, noct. cough, link with GERD ++, 8 weeks
[17] = patient 44, pharyngitis, link with GERD +, 4 weeks
[18] = patient 45, pseudo-angina, link with GERD ++, 8 weeks
[19] = patient 49, pseudo-angina, link with GERD ++, 12 weeks

COc1ccc2[nH]c([S+]([O-])Cc3ncc(C)c(OC)c3C)nc2n1 (stereo not shown) [tenatoprazole, 5-methoxy-2-[[(4-methoxy-3,5-dimethyl-2-pyridyl)methyl]sulfinyl]imidazo[4,5-b]pyridine]
AUC(0-t) ([1]; in vivo, 10 mg, repeated dose (7 days) 10 mg daily): 13000 ng·h/mL | AUC(0-t) ([1]; in vivo, 10 mg, single dose 10 mg): 8000 ng·h/mL | AUC(0-t) ([1]; in vivo, 20 mg, repeated dose (7 days) 20 mg daily): 36000 ng·h/mL | AUC(0-t) ([1]; in vivo, 20 mg, single dose 20 mg): 24000 ng·h/mL | AUC(0-t) ([1]; in vivo, 40 mg, repeated dose (7 days) 40 mg daily): 75000 ng·h/mL | AUC(0-t) ([1]; in vivo, 40 mg, single dose 40 mg): 43000 ng·h/mL | AUC(0-t) ([1]; in vivo, 80 mg, repeated dose (7 days) 80 mg daily): 218000 ng·h/mL | AUC(0-t) ([1]; in vivo, 80 mg, single dose 80 mg): 97000 ng·h/mL | Cmax at 7 days [1, 4]: 1600 ng/mL | Tmax at 7 days [1, 4]: 3 h | half-life at 7 days ([1]; in vivo, repeated dose (7 days) 10 mg daily, read-out: T½ elimination half-life (converted)): 5 h | Cmax at 7 days [1, 5]: 3000 ng/mL | Tmax at 7 days [1, 5]: 2 h | half-life at 7 days ([1]; in vivo, repeated dose (7 days) 20 mg daily, read-out: T½ elimination half-life (converted)): 8 h | Cmax at 7 days [1, 6]: 5500 ng/mL | Tmax at 7 days [1, 6]: 3 h | half-life at 7 days ([1]; in vivo, repeated dose (7 days) 40 mg daily, read-out: T½ elimination half-life (converted)): 9 h | Cmax at 7 days [1, 7]: 11800 ng/mL | Tmax at 7 days [1, 7]: 2 h | half-life at 7 days ([1]; in vivo, repeated dose (7 days) 80 mg daily, read-out: T½ elimination half-life (converted)): 9.2 h | Cmax ([1]; in vivo, single dose 10 mg): 900 ng/mL | Tmax ([1]; in vivo, single dose 10 mg): 4 h | half-life ([1]; in vivo, single dose 10 mg, read-out: T½ elimination half-life (converted)): 5 h | Cmax ([1]; in vivo, single dose 20 mg): 2400 ng/mL | Tmax ([1]; in vivo, single dose 20 mg): 4 h | Cmax ([1]; in vivo, single dose 40 mg): 5300 ng/mL | Tmax ([1]; in vivo, single dose 40 mg): 3 h | half-life ([1]; in vivo, single dose 40 mg, read-out: T½ elimination half-life (converted)): 6 h | Cmax ([1]; in vivo, single dose 80 mg): 8300 ng/mL | Tmax ([1]; in vivo, single dose 80 mg): 3 h | half-life ([1]; in vivo, single dose 80 mg, read-out: T½ elimination half-life (converted)): 7 h | half-life ([1]; plasma, after a single dose, depending on the dose (10-80 mg), read-out: mean elimination half-lives): 5 to 6 h | half-life at 7 days ([1]; plasma, after administration for seven days, depending on the dose (10-80 mg), read-out: mean elimination half-lives): 5 to 9.5 h | half-life compared with other proton pump inhibitors (omeprazole, esomeprazole) ([1]; in vivo): some seven times longer | dose dependence of Cmax, AUC0-t and AUC0-inf ([1]; single or repeated administration, 10-80 mg): increased in a linear fashion | Evolution of symptom [2, 8]: +++ | Safety [2, 8]: +++ | Evolution of symptom [2, 9]: 0 | Safety [2, 9]: ++ | Evolution of symptom [2, 10]: +++ | Safety [2, 10]: +++ | Evolution of symptom [2, 11]: + | Safety [2, 11]: +++ | Evolution of symptom [2, 12]: ++ | Safety [2, 12]: +++ | Evolution of symptom [2, 13]: ++ | Safety [2, 13]: +++ | Evolution of symptom [2, 14]: ++ | Safety [2, 14]: +++ | Evolution of symptom [2, 15]: +++ | Safety [2, 15]: +++ | Evolution of symptom [2, 16]: +++ | Safety [2, 16]: ++ | Evolution of symptom [2, 17]: ++ | Safety [2, 17]: +++ | Evolution of symptom [2, 18]: +++ | Safety [2, 18]: +++ | Evolution of symptom [2, 19]: +++ | Safety [2, 19]: +++ | Improvement rating of symptoms, patients rated A markedly improved ([3]; 1 week): 16 | Improvement rating of symptoms, patients rated B moderately improved ([3]; 1 week): 6 | Improvement rating of symptoms, patients rated C slightly improved ([3]; 1 week): 0 | Improvement rating of symptoms, patients rated D not changed ([3]; 1 week): 3 | Improvement rating of symptoms, patients rated E aggravated ([3]; 1 week): 0 | Improvement rating of symptoms, patients rated A markedly improved ([3]; 2 weeks): 21 | Improvement rating of symptoms, patients rated B moderately improved ([3]; 2 weeks): 1 | Improvement rating of symptoms, patients rated C slightly improved ([3]; 2 weeks): 0
